# Reference: patent US20230099344A1, “COMPOUNDS AND METHODS FOR THE TARGETED DEGRADATION OF IRAK-4” (Arvinas Operations, Inc., priority 2021, published 2023)
# Target: T1, IRAK-4 (Homo sapiens, UniProt Q9NWZ3)
# T1 sequence (Q9NWZ3 1-460): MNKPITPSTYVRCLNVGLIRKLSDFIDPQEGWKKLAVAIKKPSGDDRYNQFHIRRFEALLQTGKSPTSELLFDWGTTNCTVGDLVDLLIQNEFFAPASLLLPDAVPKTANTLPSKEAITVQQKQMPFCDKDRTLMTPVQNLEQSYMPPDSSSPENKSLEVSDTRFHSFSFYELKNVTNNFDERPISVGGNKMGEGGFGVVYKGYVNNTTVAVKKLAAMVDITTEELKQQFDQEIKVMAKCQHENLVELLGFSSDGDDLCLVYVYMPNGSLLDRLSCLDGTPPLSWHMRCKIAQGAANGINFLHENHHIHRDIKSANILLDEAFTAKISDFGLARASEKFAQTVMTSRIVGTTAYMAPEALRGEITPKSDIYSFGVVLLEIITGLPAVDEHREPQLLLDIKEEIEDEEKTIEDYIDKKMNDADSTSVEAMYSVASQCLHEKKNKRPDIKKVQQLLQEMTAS
# Assay: IRAK-4 ELISA, PBMC degradation
# Format: cell-based
# Parameters: endogenous in cells; host or cells: PBMC
# Conditions: treated overnight
# Description: Reagents: Human IRAK-4 Matched Antibody Pair Kit (Abcam ab218182) and ELISA Accessory Pack (Abcam ab210905).
# Cell Treatment and Lysis:
# 1. OCI-Ly10: 200,000 cells are seeded at 1×10^6/ml in 96-well U-bottom plates 200 ul per well, treated with compound the same day. Incubate overnight. 2. PBMC: 800,000 cells are seeded at 2×10^6/ml in 96-well U-bottom deep-well plates, 400 ul per well, treated with compound the same day. Incubate overnight.
# Cell lysate is collected and analyzed by ELISA for IRAK-4 levels.
DC50,Dmax,PBMC DC90,Compound
< 1 nM,≥ 90%,A (A represents a DC90 value <10.0 nM),CCN(C1CN(c2cccc3c2n(C)c(=O)n3C2CCC(=O)NC2=O)C1)[C@H]1CC[C@H](n2cc3cc(NC(=O)c4cnn5cccnc45)c(OC(C)C)cc3n2)CC1 (stereo partly drawn) [Example 388]
< 1 nM,≥ 90%,A (A represents a DC90 value <10.0 nM),"O=C1CCC(N2C(=O)c3ccc(N4CC5(CCCN(C6CCC(n7cc8cc(NC(=O)c9cnn%10cccnc9%10)c(OCC9CC9)cc8n7)CC6)C5)C4)cc3C2=O)C(=O)N1 (stereo not drawn) [Example 417, N-(6-(cyclopropylmethoxy)-2-(4-(2-(2-(2,6-dioxopiperidin-3-yl)-1,3-dioxoisoindolin-5-yl)-2,6-diazaspiro[3.5]nonan-6-yl)cyclohexyl)-2H-indazol-5-yl)pyrazolo[1,5-a]pyrimidine-3-carboxamide]"
< 1 nM,≥ 90%,A (A represents a DC90 value <10.0 nM),CC(C)Oc1cc2c(cc1NC(=O)c1cnn3cccnc13)CN(C[C@@H](F)C1CCN(CC3CN(c4ccc5c(c4)CN(C4CCC(=O)NC4=O)C5=O)C3)CC1)C2=O (stereo partly drawn) [Example 16]
1 to 5 nM,80 to 90%,D (D represents a DC90 value ≥50 nM),CN(C1CCC(n2cc3cc(NC(=O)c4cnn5cccnc45)c(OCC4CC4)cc3n2)CC1)C1CN(c2ccc3c(c2)C(=O)N(C2CCC(=O)NC2=O)C3)C1 (stereo not drawn) [Example 355]
< 1 nM,≥ 90%,A (A represents a DC90 value <10.0 nM),CC(C)Oc1cc2c(cc1NC(=O)c1cnn3cccnc13)CN(C1CCC(N(C)C3CN(c4ccc(C(=O)NC5CCC(=O)NC5=O)c(F)c4)C3)CC1)C2=O (stereo not drawn) [Example 328]
5 to 10 nM,70 to 80%,D (D represents a DC90 value ≥50 nM),CN1CC(Oc2cc3nn(C4CCN(CC5CN(c6ccc7c(c6)C(=O)N(C6CCC(=O)NC6=O)C7=O)C5)CC4)cc3cc2NC(=O)c2cnn3cccnc23)C1 (stereo not drawn) [Example 151]
≥ 10 nM,80 to 90%,3 nM,CC(C)Oc1cc2c(cc1NC(=O)c1cnn3cccnc13)CN(C1CCN(CCOc3ccc4c(c3)CN(C3CCC(=O)NC3=O)C4=O)CC1)C2=O (stereo not drawn) [Example 3]
1 to 5 nM,80 to 90%,A (A represents a DC90 value <10.0 nM),COc1cc(N2CC(F)(CN3CCC(n4cc5cc(NC(=O)c6cnn7cccnc67)c(OCC6CC6)cc5n4)CC3)C2)cc2c1C(=O)N(C1CCC(=O)NC1=O)C2 (stereo not drawn) [Example 242]
< 1 nM,≥ 90%,A (A represents a DC90 value <10.0 nM),Cn1c(=O)n(C2CCC(=O)NC2=O)c2cccc(N3CC(CN4CCC(n5cc6cc(NC(=O)c7cnn8cccnc78)c(C7CC7)cc6n5)CC4)C3)c21 (stereo not drawn) [Example 383]
< 1 nM,≥ 90%,A (A represents a DC90 value <10.0 nM),CN(C1CCN(c2ccc3c(c2)C(=O)N(C2CCC(=O)NC2=O)C3=O)CC1)[C@H]1CC[C@H](n2cc3cc(NC(=O)c4cnn5cccnc45)c(C4CC4)cc3n2)CC1 (stereo partly drawn) [Example 344]
< 1 nM,≥ 90%,A (A represents a DC90 value <10.0 nM),CN(C1CCC(N2Cc3cc(NC(=O)c4cnn5cccnc45)c(OC4CC4)cc3C2=O)CC1)C1CN(c2ccc3c(c2)C(=O)N(C2CCC(=O)NC2=O)C3=O)C1 (stereo not drawn) [Example 341]
< 1 nM,≥ 90%,A (A represents a DC90 value <10.0 nM),CC(C)Oc1cc2nn(C3CCN(CCN4CCN(c5ccc6c(c5)C(=O)N(C5CCC(=O)NC5=O)C6=O)CC4)CC3)cc2cc1NC(=O)c1cnn2cccnc12 (stereo not drawn) [Example 137]
< 1 nM,≥ 90%,A (A represents a DC90 value <10.0 nM),CCN(C1CCC(N2Cc3cc(NC(=O)c4cnn5cccnc45)c(OC(C)C)cc3C2=O)CC1)C1CN(c2ccc3c(c2)CN(C2CCC(=O)NC2=O)C3=O)C1 (stereo not drawn) [Example 330]
1 to 5 nM,≥ 90%,A (A represents a DC90 value <10.0 nM),COc1cc(N2CC(N(C)[C@H]3CC[C@H](N4Cc5cc(NC(=O)c6cnn7cccnc67)c(OC(C)C)cc5C4=O)CC3)C2)cc2c1C(=O)N(C1CCC(=O)NC1=O)C2=O (stereo partly drawn) [Example 321]
≥ 10 nM,≥ 90%,D (D represents a DC90 value ≥50 nM),CC(C)Oc1cc2nn(C3CCN(CC4(F)CN(c5ccc6c(c5)C(=O)N(C5CCC(=O)NC5=O)C6=O)C4)CC3)cc2cc1NC(=O)c1cnn2ccc(N3CCOCC3)nc12 (stereo not drawn) [Example 190]
5 to 10 nM,80 to 90%,D (D represents a DC90 value ≥50 nM),CC(C)Oc1cc2c(cc1NC(=O)c1cnn3ccc(N4CCOCC4)nc13)CN(C1CCN(CC3CCN(c4ccc5c(c4)C(=O)N(C4CCC(=O)NC4=O)C5=O)CC3)CC1)C2=O (stereo not drawn) [Example 74]
1 to 5 nM,70 to 80%,D (D represents a DC90 value ≥50 nM),CNc1ccn2ncc(C(=O)Nc3cc4cn(C5CCN(CC6(F)CN(c7ccc8c(c7)C(=O)N(C7CCC(=O)NC7=O)C8=O)C6)CC5)nc4cc3OCC3CC3)c2n1 (stereo not drawn) [Example 237]
1 to 5 nM,≥ 90%,A (A represents a DC90 value <10.0 nM),CN(CC1(C)CCN(c2ccc3c(c2)C(=O)N(C2CCC(=O)NC2=O)C3=O)CC1)C1CCC(n2cc3cc(NC(=O)c4cnn5cccnc45)c(OCC4CC4)cc3n2)CC1 (stereo not drawn) [Example 356]
< 1 nM,≥ 90%,A (A represents a DC90 value <10.0 nM),CC(C)Oc1cc2nn([C@H]3CC[C@H](N(C)C4CCN(c5ccc6c(c5)C(=O)N(C5CCC(=O)NC5=O)C6=O)CC4)CC3)cc2cc1NC(=O)c1cnn2cccnc12 (stereo partly drawn) [Example 317]
< 1 nM,80 to 90%,A (A represents a DC90 value <10.0 nM),CN(CC1CCN(c2ccc3c(c2)C(=O)N(C2CCC(=O)NC2=O)C3=O)CC1)[C@H]1CC[C@H](n2cc3cc(NC(=O)c4cnn5cccnc45)c(OCC4CC4)cc3n2)CC1 (stereo partly drawn) [Example 349]

Compound,DC50,Dmax,PBMC DC90
"CC(C)Oc1cc2c(cc1NC(=O)c1cnn3cccnc13)CN(C1CCN(CC3CCN(c4ccc(C(=O)NC5CCC(=O)NC5=O)c(F)c4)CC3)CC1)C2=O (stereo not drawn) [Example 286, N-[2-[1-[[1-[4-[(2,6-dioxo-3-piperidyl)carbamoyl]-3-fluoro-phenyl]-4-piperidyl]methyl]-4-piperidyl]-6-isopropoxy-1-oxo-isoindolin-5-yl]pyrazolo[1,5-a]pyrimidine-3-carboxamide]",1 to 5 nM,≥ 90%,B (B represents a DC90 value ≥10.0 nM and <25.0 nM)
O=C1CCC(N2C(=O)c3cc(F)c(N4CC(F)(CN5CCC(n6cc7cc(NC(=O)c8cnn9cccnc89)c(OCC8CC8)cc7n6)CC5)C4)cc3C2=O)C(=O)N1 (stereo not drawn) [Example 229],5 to 10 nM,80 to 90%,B (B represents a DC90 value ≥10.0 nM and <25.0 nM)
CC(C)Oc1cc2c(cc1NC(=O)c1cnn3cccnc13)CN(C1CCN(CC3(F)CN(c4ccc(C(=O)NC5CCC(=O)NC5=O)c(F)c4)C3)CC1)C2=O (stereo not drawn) [Example 297],1 to 5 nM,≥ 90%,B (B represents a DC90 value ≥10.0 nM and <25.0 nM)
CCOc1cc2nn(C3CCN(CC4(F)CN(c5ccc6c(c5)C(=O)N(C5CCC(=O)NC5=O)C6=O)C4)CC3)cc2cc1NC(=O)c1cnn2cccnc12 (stereo not drawn) [Example 195],1 to 5 nM,≥ 90%,B (B represents a DC90 value ≥10.0 nM and <25.0 nM)
O=C1CCC(N2C(=O)c3ccc(N4CC(F)(CN5CCC(n6cc7cc(NC(=O)c8cnn9ccc(N%10C[C@H]%11C[C@@H]%10CO%11)nc89)c(OCC8CC8)cc7n6)CC5)C4)cc3C2=O)C(=O)N1 (stereo partly drawn) [Example 239],5 to 10 nM,< 70%,C (C represents a DC90 value ≥25.0 nM and <50 nM)
CC(C)Oc1cc2nn(C[C@@H](F)C3CCN(CC4(F)CN(c5ccc6c(c5)C(=O)N(C5CCC(=O)NC5=O)C6=O)C4)CC3)cc2cc1NC(=O)c1cnn2cccnc12 (stereo partly drawn) [Example 414],1 to 5 nM,80 to 90%,B (B represents a DC90 value ≥10.0 nM and <25.0 nM)
O=C1CCC(N2Cc3cc(N4CC(N5CCC(N6Cc7cc(NC(=O)c8cnn9cccnc89)c(N8CCC(N9CCC9)CC8)cc7C6=O)CC5)C4)ccc3C2=O)C(=O)N1 (stereo not drawn) [Example 39],5 to 10 nM,≥ 90%,C (C represents a DC90 value ≥25.0 nM and <50 nM)
CC(C)Oc1cc2nn(C3CN(CC4(F)CCN(c5ccc6c(c5)C(=O)N(C5CCC(=O)NC5=O)C6=O)CC4)C3)cc2cc1NC(=O)c1cnn2cccnc12 (stereo not drawn) [Example 194],1 to 5 nM,≥ 90%,C (C represents a DC90 value ≥25.0 nM and <50 nM)
O=C1CCC(N2C(=O)c3ccc(N4CC(F)(CN5CCC(n6cc7cc(NC(=O)c8cnn9cccnc89)c(OC8CCC8)cc7n6)CC5)C4)cc3C2=O)C(=O)N1 (stereo not drawn) [Example 196],1 to 5 nM,80 to 90%,B (B represents a DC90 value ≥10.0 nM and <25.0 nM)
